# Results as given in patent US9155317B2, “Antifungal compositions” (DSM IP ASSETS B.V., priority 2011, dated 2015).
# What was measured:
# Fusarium proliferatum [1] = assay: Treatment of wounded, inoculated bananas (mould growth); assay type: in vivo; conditions: 20° C.
# Description: Four organic, unripe (green) bananas were used per treatment. The peel of each banana was wounded thrice using a cork borer according to the method described by de Lapeyre de Bellaire and Dubois (1987). Subsequently, each wound was inoculated with 15 μl of a Fusarium proliferatum suspension containing 1×10^5 of spores/ml. […] In addition, the antifungal compositions comprised 1.00% (w/w) methylhydroxyethylcellulose (MHEC), 0.40% (w/w) xanthan gum, 0.20% (w/w) anti-foaming agent, 0.30% (w/w) citric acid, 0.39% (w/w) lactic acid and 0.11% (w/w) potassium sorbate. […] The treated, unripe bananas were incubated in a closed box in the dark at 20° C. and a relative air humidity of 95%, which was obtained in the presence of a saturated Na2HPO4 aqueous solution. During the first 20 days of incubation, a ripe (yellow) banana was included in the closed box to elevate the ethylene gas level and thus induce ripening of the treated, unripe bananas.
# (§1) The expected antifungal activity (E in %) of the combined antifungal composition comprising both active ingredients was calculated according to the Colby equation (Colby, 1967): E=X+Y−[(X·Y)/100] wherein X and Y are the observed antifungal activities (in %) of the individual active ingredients X and Y, respectively. If the observed antifungal activity (0 in %) of the combination exceeds the expected antifungal activity (E in %) of the combination and the synergy factor O/E is thus >1.0, the combined application of the active ingredients leads to a synergistic antifungal effect.
# The degree of mould growth on the banana wounds was assessed according to the two methods described in Example 3.
# Fusarium proliferatum [2] = assay: In vitro antifungal activity, 96-well microtiter plates; assay type: cell-based; conditions: 5 days at 25° C.
# Description: (§2) Subsequently, 100 μl of a Botrytis cinerea suspension prepared in PCB medium was used to inoculated each well with 2.5×10^3 spores/ml.
# (§3) After incubation of the microtiter plates for 5 days at 25° C., the in vitro antifungal activity (%) of the individual active ingredients was assessed by calculating the reduction in mould growth observed in the presence of the active ingredient in comparison to the mould growth observed in the absence of the active ingredient. The expected antifungal activity (E in %) of the active ingredient combination was calculated according to the Colby equation (Colby, 1967): E=X+Y−[(X·Y)/100] wherein X and Y are the observed antifungal activities (in %) of the individual active ingredients X and Y, respectively. If the observed antifungal activity (O in %) of the combination exceeds the expected antifungal activity (E in %) of the combination and the resulting synergy factor O/E is thus >1.0, the combined application of the active ingredients leads to a synergistic antifungal effect.
# The experiment was conducted as described in Example 11, except for the fact that the following compositions were tested:
# Furthermore, Fusarium proliferatum was used for inoculation.
# Penicillium italicum = assay: Treatment of wounded, inoculated mandarins (mould growth); assay type: in vivo; conditions: 20° C.
# Description: Ten fresh, organic mandarins were used per treatment. The peel of each mandarin was wounded once using a cork borer according to the method described by de Lapeyre de Bellaire and Dubois (1987). Subsequently, each wound was inoculated with 10 μl of a Penicillium italicum suspension containing 1×10^4 of spores/ml.
# as §1, with “The treated mandarins were incubated in a closed box in the dark at 20° C. and assessed on mould growth after 16, 19, 22 and 26 days of incubation. […] The” for “The”, “(O” for “(0”
# Botrytis cinerea [3] = assay: In vitro antifungal activity, 96-well microtiter plates; assay type: cell-based; conditions: 5 days at 25° C., alone or combined with natamycin
# Description: The following compositions were tested:
# as §2, §3
# Botrytis cinerea [4] = assay: Treatment of wounded, inoculated strawberries (mould growth); assay type: in vivo; conditions: 20° C., 250 ppm natamycin, 500 ppm pyrimethanil or both
# Description: Twelve fresh, organic strawberries were used per treatment. Each strawberry was wounded with a 0.5 mm long cut and each wound was inoculated with 10 μl of a Botrytis cinerea suspension containing 1×10^5 of spores/ml. […] The antifungal composition also comprised 1.00% (w/w) methylhydroxyethylcellulose (MHEC), 0.40% (w/w) xanthan gum, 0.20% (w/w) anti-foaming agent, 0.30% (w/w) citric acid, 0.39% (w/w) lactic acid and 0.11% (w/w) potassium sorbate. A composition without natamycin or pyrimethanil was used as control.
# as §1, with “The treated strawberries were incubated for three days in a closed box in the dark at 20° C. and assessed daily on mould growth. The antifungal activity (in %) of the individual active ingredients was determined by calculating the reduction in mould growth observed on the strawberries treated with the antifungal composition in comparison to the mould growth on the strawberries treated with the control composition. The” for “The”, “(O” for “(0”
# [5] = 250 ppm natamycin, 500 ppm cyprodinil or both, 21 days
# [6] = 500 ppm natamycin, 1000 ppm cyprodinil or both, 27 days
# [7] = natamycin 1.25 ppm, cyprodinil 10 ppm, pyrimethanil 17.5 ppm
# [8] = natamycin […], cyprodinil 20 ppm, pyrimethanil 30 ppm
# [9] = 250 ppm natamycin, 500 ppm pyrimethanil or both, 23 days
# [10] = 250 ppm natamycin, 500 ppm pyrimethanil or both, 29 days
# [11] = 500 ppm natamycin, 1000 ppm pyrimethanil or both, 22 days
# [12] = 500 ppm natamycin, 1000 ppm pyrimethanil or both, 26 days
compound,measurement,setting,value
"Cc1cc(C2CC2)nc(Nc2ccccc2)n1 [Cyprodinil, cyprodinil]",Observed antifungal activity O (%),"Fusarium proliferatum [1]; 50 ppm natamycin, 250 ppm cyprodinil or both, 23 days",0%
same,Observed antifungal activity O (%),"Fusarium proliferatum [1]; 50 ppm natamycin, 250 ppm cyprodinil or both, 29 days",0%
same,Observed antifungal activity O (%),"Fusarium proliferatum [1]; 50 ppm natamycin, 250 ppm cyprodinil or both, 32 days",0%
same,Observed antifungal activity O (%),"Fusarium proliferatum [1]; 50 ppm natamycin, 250 ppm cyprodinil or both, 36 days",0%
same,Number of moulded wounds/total number of 12 wounds,"Fusarium proliferatum [1]; 250 ppm natamycin, 500 ppm cyprodinil or both, 18 days",12/12
same,Number of moulded wounds/total number of 12 wounds,"Fusarium proliferatum [1]; 250 ppm natamycin, 500 ppm cyprodinil or both, 18 days, listed as cyprodinil",12
same,Number of moulded wounds/total number of 12 wounds,Fusarium proliferatum [1]; [5],12/12
same,Observed antifungal activity O (%),Fusarium proliferatum [1]; [5],35%
same,Number of moulded wounds/total number of 12 wounds,"Fusarium proliferatum [1]; 250 ppm natamycin, 500 ppm cyprodinil or both, 21 days, listed as cyprodinil",12
same,Observed antifungal activity O (%),"Fusarium proliferatum [1]; 250 ppm natamycin, 500 ppm cyprodinil or both, 32 days",3%
same,Observed antifungal activity O (%),"Fusarium proliferatum [1]; 250 ppm natamycin, 500 ppm cyprodinil or both, 34 days",0%
same,Number of moulded wounds/total number of 12 wounds,"Fusarium proliferatum [1]; 500 ppm natamycin, 1000 ppm cyprodinil or both, 23 days",12/12
same,Number of moulded wounds/total number of 12 wounds,"Fusarium proliferatum [1]; 500 ppm natamycin, 1000 ppm cyprodinil or both, 23 days, listed as cyprodinil",12
same,Number of moulded wounds/total number of 12 wounds,Fusarium proliferatum [1]; [6],12/12
same,Observed antifungal activity O (%),Fusarium proliferatum [1]; [6],18%
same,Number of moulded wounds/total number of 12 wounds,"Fusarium proliferatum [1]; 500 ppm natamycin, 1000 ppm cyprodinil or both, 27 days, listed as cyprodinil",12
same,Observed antifungal activity O (%),"Fusarium proliferatum [1]; 500 ppm natamycin, 1000 ppm cyprodinil or both, 39 days",0%
same,Observed antifungal activity O (%),"Fusarium proliferatum [2]; natamycin 1.25 ppm, cyprodinil 125 ppm or both",0%
same,Observed antifungal activity O (%),"Penicillium italicum; 250 ppm natamycin, 500 ppm cyprodinil or both, 16 days",60%
same,Observed antifungal activity O (%),"Penicillium italicum; 250 ppm natamycin, 500 ppm cyprodinil or both, 19 days",38%
same,Observed antifungal activity O (%),"Penicillium italicum; 250 ppm natamycin, 500 ppm cyprodinil or both, 22 days",20%
same,Observed antifungal activity O (%),"Penicillium italicum; 250 ppm natamycin, 500 ppm cyprodinil or both, 26 days",13%
same,Observed antifungal activity O (%),Botrytis cinerea [3]; [7],0%
same,Observed antifungal activity O (%),Botrytis cinerea [3]; [8],0%
"C[C@@H]1C/C=C/C=C/C=C/C=C/[C@H](O[C@@H]2O[C@H](C)[C@@H](O)[C@H](N)[C@@H]2O)C[C@@H]2O[C@](O)(C[C@@H](O)C[C@H]3O[C@@H]3/C=C/C(=O)O1)C[C@H](O)[C@H]2C(=O)O [Natamycin, natamycin]",Observed antifungal activity O (%),Fusarium proliferatum [1]; [9],19%
same,Observed antifungal activity O (%),Fusarium proliferatum [1]; [10],9%
same,Observed antifungal activity O (%),Penicillium italicum; [11],37%
same,Observed antifungal activity O (%),Penicillium italicum; [12],30%
same,Observed antifungal activity O (%),Botrytis cinerea [4]; 1 day,25%
same,Observed antifungal activity O (%),Botrytis cinerea [4]; 2 days,31%
same,Observed antifungal activity O (%),Botrytis cinerea [4]; 3 days,24%
"Cc1cc(C)nc(Nc2ccccc2)n1 [Pyrimethanil, pyrimethanil]",Observed antifungal activity O (%),Fusarium proliferatum [1]; [9],0%
same,Observed antifungal activity O (%),Fusarium proliferatum [1]; [10],0%
same,Observed antifungal activity O (%),"Fusarium proliferatum [1]; 250 ppm natamycin, 500 ppm pyrimethanil or both, 32 days",0%
same,Observed antifungal activity O (%),"Fusarium proliferatum [1]; 250 ppm natamycin, 500 ppm pyrimethanil or both, 34 days",0%
same,Observed antifungal activity O (%),"Fusarium proliferatum [2]; natamycin 2.5 ppm, pyrimethanil 275 ppm or both",0%
same,Observed antifungal activity O (%),"Penicillium italicum; 250 ppm natamycin, 500 ppm pyrimethanil or both, 19 days",84%
same,Observed antifungal activity O (%),"Penicillium italicum; 250 ppm natamycin, 500 ppm pyrimethanil or both, 22 days",74%
same,Observed antifungal activity O (%),"Penicillium italicum; 250 ppm natamycin, 500 ppm pyrimethanil or both, 26 days",65%
same,Observed antifungal activity O (%),Penicillium italicum; [11],82%
same,Observed antifungal activity O (%),Penicillium italicum; [12],79%
same,Observed antifungal activity O (%),Botrytis cinerea [3]; [7],50%
same,Observed antifungal activity O (%),Botrytis cinerea [3]; [8],50%
same,Observed antifungal activity O (%),Botrytis cinerea [4]; 1 day,0%
same,Observed antifungal activity O (%),Botrytis cinerea [4]; 2 days,0%
same,Observed antifungal activity O (%),Botrytis cinerea [4]; 3 days,0%
